Measurements from US11053204B2, “Pyrimidinyloxy benzene derivatives as herbicides” (FMC Corporation, priority 2015, dated 2021).

What was measured:
Assay type in all cases: in vivo
[1] = system: barnyardgrass (Echinochloa crus-galli); experiment: Test A postemergence, visual injury rating; settings: 1000 g ai/ha, 0 is no effect, 100 is complete control
In short: (§1)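 Scoring: eye-based comparison with untreated controls, 0 for no effect through 100 for complete control, at about day 10. Treatments: directed soil spray preemergence; foliar spray postemergence on 2–10 cm plants at the one- to two-leaf stage. Medium: loam soil with sand.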

[2] = system: pigweed (Amaranthus retroflexus); experiment: Test A postemergence, visual injury rating; settings: 1000 g ai/ha, 0 is no effect, 100 is complete control
In short: as §1

[3] = system: velvetleaf (Abutilon theophrasti); experiment: Test A postemergence, visual injury rating; settings: 1000 g ai/ha, 0 is no effect, 100 is complete control
In short: as §1

[4] = system: corn (Zea mays); experiment: Test A postemergence, visual injury rating; settings: 1000 g ai/ha, 0 is no effect, 100 is complete control
In short: as §1

[5] = system: giant foxtail (Setaria faberii); experiment: Test A postemergence, visual injury rating; settings: 1000 g ai/ha, 0 is no effect, 100 is complete control
In short: as §1

[6] = system: large (Lg) crabgrass (Digitaria sanguinalis); experiment: Test A postemergence, visual injury rating; settings: 1000 g ai/ha, 0 is no effect, 100 is complete control
In short: as §1

[7] = system: wheat (Triticum aestivum); experiment: Test A postemergence, visual injury rating; settings: 1000 g ai/ha, 0 is no effect, 100 is complete control
In short: as §1

[8] = system: barnyardgrass (Echinochloa crus-galli); experiment: Test A preemergence, visual injury rating; settings: 1000 g ai/ha, 0 to 100 scale (0 no effect, 100 complete control)
In short: as §1

[9] = system: pigweed (Amaranthus retroflexus); experiment: Test A preemergence, visual injury rating; settings: 1000 g ai/ha, 0 to 100 scale (0 no effect, 100 complete control)
In short: as §1

[10] = system: velvetleaf (Abutilon theophrasti); experiment: Test A preemergence, visual injury rating; settings: 1000 g ai/ha, 0 to 100 scale (0 no effect, 100 complete control)
In short: as §1

[11] = system: corn (Zea mays); experiment: Test A preemergence, visual injury rating; settings: 1000 g ai/ha, 0 to 100 scale (0 no effect, 100 complete control)
In short: as §1

[12] = system: giant foxtail (Setaria faberii); experiment: Test A preemergence, visual injury rating; settings: 1000 g ai/ha, 0 to 100 scale (0 no effect, 100 complete control)
In short: as §1

[13] = system: large (Lg) crabgrass (Digitaria sanguinalis); experiment: Test A preemergence, visual injury rating; settings: 1000 g ai/ha, 0 to 100 scale (0 no effect, 100 complete control)
In short: as §1

[14] = system: wheat (Triticum aestivum); experiment: Test A preemergence, visual injury rating; settings: 1000 g ai/ha, 0 to 100 scale (0 no effect, 100 complete control)
In short: as §1

[15] = system: ducksalad (Heteranthera limosa); experiment: Test B flooded paddy test, plant response rating; settings: 250 g ai/ha; Flood; scale of 0 to 100 where 0 is no effect and 100 is complete control; 13 to 15 days
In short: (§2)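 Ratings were visual and made relative to untreated controls after 13 to 15 greenhouse days.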

[16] = system: barnyardgrass (Echinochloa crus-galli); experiment: Test B flooded paddy test, plant response rating; settings: 250 g ai/ha; Flood; scale of 0 to 100 where 0 is no effect and 100 is complete control; 13 to 15 days
In short: as §2

[17] = system: sedge, umbrella (small-flower umbrella sedge, Cyperus difformis); experiment: Test B flooded paddy test, plant response rating; settings: 250 g ai/ha; Flood; scale of 0 to 100 where 0 is no effect and 100 is complete control; 13 to 15 days
In short: as §2

[18] = system: rice (Oryza sativa); experiment: Test B flooded paddy test, plant response rating; settings: 250 g ai/ha; Flood; scale of 0 to 100 where 0 is no effect and 100 is complete control; 13 to 15 days
In short: as §2

SMILES | Barnyardgrass plant response rating (0 to 100 scale) [1] | Pigweed plant response rating (0 to 100 scale) [2] | Velvetleaf plant response rating (0 to 100 scale) [3] | Corn plant response rating (0 to 100 scale) [4] | Foxtail, Giant plant response rating (0 to 100 scale) [5] | Crabgrass, Large plant response rating (0 to 100 scale) [6] | Wheat plant response rating (0 to 100 scale) [7] | Barnyardgrass plant response rating [8] | Pigweed plant response rating [9] | Velvetleaf plant response rating [10] | Corn plant response rating [11] | Foxtail, Giant plant response rating [12] | Crabgrass, Large plant response rating [13] | Wheat plant response rating [14] | Plant response rating, Ducksalad [15] | Plant response rating, Barnyardgrass [16] | Plant response rating, Sedge, Umbrella [17] | Plant response rating, Rice [18]
CON=C(C)c1ccccc1Oc1ncc(Cl)cn1 [Compound 55] | 0 | 0 | 10 | 0 | 10 | 0 | 0 | 0 | 0 | 0 | 0 | 0 | 0 | 0 |  |  |  | 
CC(=NOC(C)C)c1ccccc1Oc1ncc(Cl)cn1 [Compound 56] | 50 | 60 | 100 | 30 | 70 | 40 | 10 | 90 | 100 | 90 | 0 | 100 | 100 | 0 | 0 | 0 | 0 | 0
